Results reported in the supplement of paper PMC10307832.

Assays:
Assay in all cases: relative viability (nuclei count vs DMSO), 5 days (fraction); higher = more cells survive
[1] = compound: CC1=CC=C(C=C1)C(=O)CN2C3=C(CCCC3)SC2=N [Pifithrin_alpha] + COc1cccc2cc(-c3nc([C@H]4CC[C@H](C(=O)O)CC4)n4ncnc(N)c34)[nH]c12 [OSI-027] (partner 0.5 µM)
Method in brief: (§1)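 Relative viability was taken as the ratio of nuclei in treated wells to nuclei in vehicle wells. Lung cancer cell lines in 1536-well plates received compounds by pin tool one day after seeding, either one drug alone or a fixed anchor-drug dose plus five library-drug doses (not always all listed) in √10 steps. Nuclei were counted on 4× images after 5 days of treatment, and values are medians of duplicate plates.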

[2] = compound: CC1=CC=C(C=C1)C(=O)CN2C3=C(CCCC3)SC2=N [Pifithrin_alpha] + Nc1ncn([C@H]2C[C@H](O)[C@@H](CO)O2)c(=O)n1 [Decitabine] (partner 2 µM)
Method in brief: as §1

Axitinib + Navitoclax = compound: CNC(=O)c1ccccc1Sc1ccc2c(/C=C/c3ccccn3)n[nH]c2c1 [Axitinib] + CC1(C)CCC(c2ccc(Cl)cc2)=C(CN2CCN(c3ccc(C(=O)NS(=O)(=O)c4ccc(N[C@H](CCN5CCOCC5)CSc5ccccc5)c(S(=O)(=O)C(F)(F)F)c4)cc3)CC2)C1 [Navitoclax] (partner 0.5 µM)
Method in brief: as §1

Axitinib + AZD7762 = compound: CNC(=O)c1ccccc1Sc1ccc2c(/C=C/c3ccccn3)n[nH]c2c1 [Axitinib] + NC(=O)Nc1cc(-c2cccc(F)c2)sc1C(=O)N[C@H]1CCCNC1 [AZD7762] (partner 0.2 µM)
Method in brief: as §1

| Cell Line | relative viability ([1]; first compound 1 µM) | relative viability ([1]; first compound 3.162 µM) | relative viability ([1]; first compound 10 µM) | relative viability ([1]; first compound 31.62 µM) | relative viability ([1]; first compound 100 µM) | relative viability ([2]; first compound 1 µM) | relative viability ([2]; first compound 3.162 µM) | relative viability ([2]; first compound 10 µM) | relative viability ([2]; first compound 31.62 µM) | relative viability ([2]; first compound 100 µM) | relative viability (Axitinib + Navitoclax; first compound 0.005 µM) | relative viability (Axitinib + Navitoclax; first compound 0.01581 µM) | relative viability (Axitinib + Navitoclax; first compound 0.05 µM) | relative viability (Axitinib + Navitoclax; first compound 0.1581 µM) | relative viability (Axitinib + Navitoclax; first compound 0.5 µM) | relative viability (Axitinib + AZD7762; first compound 0.005 µM) | relative viability (Axitinib + AZD7762; first compound 0.01581 µM) | relative viability (Axitinib + AZD7762; first compound 0.05 µM) | relative viability (Axitinib + AZD7762; first compound 0.1581 µM) | relative viability (Axitinib + AZD7762; first compound 0.5 µM) |
| --- | --- | --- | --- | --- | --- | --- | --- | --- | --- | --- | --- | --- | --- | --- | --- | --- | --- | --- | --- | --- |
| NCI-H838 | 0.381 | 0.35 | 0.349 | 0.263 | 0.258 | 0.427 | 0.473 | 0.441 | 0.387 | 0.389 | 1.2 | 1.18 | 1.21 | 1.15 | 1.3 | 0.929 | 0.97 | 0.963 | 0.926 | 1.06 |
| RERF-LC-KJ | 0.586 | 0.477 | 0.421 | 0.393 | 0.317 | 0.681 | 0.621 | 0.562 | 0.382 | 0.451 | 1 | 0.942 | 0.973 | 1.02 | 1.28 | 1 | 0.916 | 1.21 | 0.977 | 1.01 |
| NCI-H2405 | 0.494 | 0.639 | 0.583 | 0.58 | 0.579 | – | 0.678 | 0.708 | 0.592 | 0.668 | 0.913 | 0.933 | 0.881 | 0.857 | 1.11 | 0.73 | 0.808 | 1.01 | 0.684 | 0.856 |
| PC-14 | 0.822 | 0.889 | 0.827 | 0.464 | 0.605 | 0.236 | 0.184 | 0.219 | 0.155 | 0.123 | 1.09 | 1.01 | 1.05 | 0.967 | 1.05 | 0.306 | – | 0.346 | 0.382 | 0.413 |
| HCC-78 | 0.349 | 0.388 | 0.34 | 0.326 | 0.349 | – | 0.623 | 0.673 | 0.623 | 0.56 | 0.873 | 0.842 | 0.727 | 0.754 | 0.737 | 0.787 | 0.58 | 0.857 | 0.708 | 0.498 |
| A-427 | 0.398 | 0.416 | 0.445 | 0.445 | 0.601 | 0.485 | 0.582 | 0.543 | 0.485 | 0.531 | 0.999 | 1.05 | 0.925 | 0.958 | 1.04 | 0.805 | 0.77 | 0.807 | 0.718 | 0.887 |
| HCC-827 | 0.807 | 0.912 | 0.823 | 0.713 | 0.774 | 0.136 | 0.357 | 0.31 | 0.334 | 0.345 | 0.971 | 0.959 | 0.998 | 1.02 | 1 | 0.195 | 0.129 | 0.176 | 0.212 | 0.214 |
| EPLC-272H | 0.227 | 0.307 | 0.245 | 0.244 | 0.256 | – | 0.268 | 0.39 | 0.375 | 0.358 | 1.19 | 1.11 | 1.09 | 1.18 | 1.09 | 0.245 | 0.165 | 0.269 | 0.234 | 0.197 |
| BEN | 0.294 | 0.278 | 0.306 | 0.286 | 0.266 | 0.505 | 0.771 | 0.742 | 0.623 | 0.639 | 0.074 | 0.0723 | 0.0728 | 0.0721 | 0.0571 | 0.633 | 0.622 | 0.694 | 0.68 | 0.618 |
| LK-2 | 0.192 | 0.213 | 0.185 | 0.17 | 0.169 | 0.202 | 0.266 | 0.309 | 0.224 | 0.316 | 1.1 | 0.84 | 0.657 | 0.659 | 0.644 | 0.385 | 0.335 | 0.279 | 0.447 | 0.307 |
| NCI-H2087 | 0.417 | 0.499 | 0.483 | – | 0.605 | 0.252 | 0.291 | 0.262 | 0.203 | 0.267 | 1.24 | 1.1 | 1.04 | 0.899 | 1.07 | 1.37 | 1.42 | 1.47 | 1.25 | 1.43 |
| NCI-H2170 | 0.729 | 0.673 | 0.7 | 0.556 | 0.558 | 0.48 | 0.453 | 0.476 | 0.427 | 0.453 | 0.661 | 0.715 | 0.621 | 0.617 | 0.707 | 1.13 | 0.958 | 0.948 | 0.792 | 0.87 |
| NCI-H441 | 0.524 | 0.662 | 0.614 | – | 0.542 | 0.233 | 0.294 | 0.212 | – | 0.301 | 0.521 | 1 | 0.727 | 0.754 | 0.994 | 1.08 | 1.02 | 1.24 | 1.09 | 1.59 |
| LOU-NH91 | 0.592 | 0.692 | 0.703 | 0.655 | 0.595 | 0.758 | 0.79 | 0.808 | 0.705 | 0.742 | 0.744 | 0.467 | 0.66 | 0.645 | 0.802 | 0.806 | 0.723 | 0.814 | 0.761 | 0.78 |
| NCI-H647 | 0.589 | 0.757 | 0.556 | 0.517 | 0.57 | 0.442 | 0.403 | 0.376 | 0.339 | 0.406 | 1.21 | 1.12 | 1.03 | 1.2 | 1.28 | 0.449 | 0.32 | 0.583 | 0.36 | 0.539 |
| NCI-H1915 | 0.567 | 0.628 | – | – | 0.584 | 0.27 | 0.254 | 0.249 | – | 0.224 | 0.802 | 0.778 | 0.77 | 0.753 | 0.812 | 0.743 | 0.671 | 0.71 | 0.713 | 0.717 |
